Experimental data: patent US12098148B2, “Therapeutic compounds” (C4X Discovery Limited, priority 2018, dated 2024)

Legend:
[1] = target: human KEAP1 (N-term, residues 321-609) (Homo sapiens, UniProt Q14145); assay: biochemical;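 also: fluorescence polarization competition assay of Kelch domain binding to NRF2, 12-point 1:3 dilution series from 10 µM, read after 1 h at room temperature, floor 10 nM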
Procedure: Biological Assays KEAP1 Kelch Fluorescence Polarization (FP) Assay Method
Inhibition of the Kelch domain-NRF2 interaction was determined using a fluorescence polarization-based competition assay in a black 384-well microplate. Compounds were tested at a starting concentration of 10 μM serially diluted 1:3 to generate a 12-point dose response curve on the Biomek FX robot.
After 1 h at room temperature, fluorescence polarization (excitation 470 nm/emission 530 nm) was measured using an Envision plate reader. IC50 values were determined by fitting the data to a four parameter logistic fit using XLfit or XE Runner within ActivityBase.

[2] = test system: NQO1 mRNA in BEAS-2B cells; assay: Beas2B NQO1 mRNA cell based assay; parameters: species or system human; details: Homo sapiens, BEAS-2B, 24 h, 24 h compound treatment, increase in NQO1 mRNA vs vehicle (0.1% DMSO), read-out: EC50
Summary of the method: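 BEAS-2B human bronchial epithelial cells exposed to compound for 24 h at 37 °C, 5% CO2. NQO1 mRNA measured by one-step TaqMan RT-qPCR on unpurified lysates, normalized to β-actin; relative expression by ΔΔCT method.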

Chain of human KEAP1 (N-term, residues 321-609) (Q14145 321-609): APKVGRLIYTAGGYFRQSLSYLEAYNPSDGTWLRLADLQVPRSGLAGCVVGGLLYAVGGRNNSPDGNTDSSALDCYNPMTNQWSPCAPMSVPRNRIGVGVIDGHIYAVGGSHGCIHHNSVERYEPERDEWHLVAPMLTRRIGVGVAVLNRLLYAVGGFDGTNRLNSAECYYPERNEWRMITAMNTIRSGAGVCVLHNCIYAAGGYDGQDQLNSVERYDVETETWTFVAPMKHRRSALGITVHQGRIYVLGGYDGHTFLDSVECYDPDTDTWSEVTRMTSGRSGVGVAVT

| SMILES | IC50 [1] [nM] | EC50 [2] [nM] |
| --- | --- | --- |
| CC[C@]1(C(=O)O)CCCC[C@H]1C(=O)N1CCc2c(Cl)ccc(OCc3nnn(C)c3C(F)F)c2[C@H]1CN1CCCC1=O [Example 117, (1S,2R)-2-((S)-5-chloro-8-((5-(difluoromethyl)-1-methyl-1H-1,2,3-triazol-4-yl)methoxy)-1-((2-oxopyrrolidin-1-yl)methyl)-1,2,3,4-tetrahydroisoquinoline-2-carbonyl)-1-ethylcyclohexane-1-carboxylic acid] | 8.2 | 37 |
| CC[C@]1(C(=O)O)CCC[C@H]1C(=O)N1CCc2c(Cl)ccc(OCc3nnn(C)c3C(F)F)c2[C@H]1CN1CCCC1=O [Example 118, (1S,2R)-2-((S)-5-chloro-8-((5-(difluoromethyl)-1-methyl-1H-1,2,3-triazol-4-yl)methoxy)-1-((2-oxopyrrolidin-1-yl)methyl)-1,2,3,4-tetrahydroisoquinoline-2-carbonyl)-1-ethylcyclopentane-1-carboxylic acid] | 8.4 | 59 |
| CCn1nnc(COc2ccc(Cl)c3c2[C@@H](CN2CCCC2=O)N(C(=O)[C@@H]2CCC[C@]2(C)C(=O)O)CC3)c1C(F)F [Example 119, (1S,2R)-2-((S)-5-chloro-8-((5-(difluoromethyl)-1-ethyl-1H-1,2,3-triazol-4-yl)methoxy)-1-((2-oxopyrrolidin-1-yl)methyl)-1,2,3,4-tetrahydroisoquinoline-2-carbonyl)-1-methylcyclopentane-1-carboxylic acid] | 8.1 | 18 |
| CCn1nnc(COc2ccc(Cl)c3c2[C@@H](CN2CCCC2=O)N(C(=O)[C@@H]2CCCC[C@]2(C)C(=O)O)CC3)c1C(F)F [Example 120, (1S,2R)-2-((S)-5-chloro-8-((5-(difluoromethyl)-1-ethyl-1H-1,2,3-triazol-4-yl)methoxy)-1-((2-oxopyrrolidin-1-yl)methyl)-1,2,3,4-tetrahydroisoquinoline-2-carbonyl)-1-methylcyclohexane-1-carboxylic acid] | 6.2 | 1.2 |
| CC(C)n1nnc(COc2ccc(Cl)c3c2[C@@H](CN2CCCC2=O)N(C(=O)[C@@H]2CCCC[C@]2(C)C(=O)O)CC3)c1C(F)F [Example 121, (1S,2R)-2-((S)-5-chloro-8-((5-(difluoromethyl)-1-isopropyl-1H-1,2,3-triazol-4-yl)methoxy)-1-((2-oxopyrrolidin-1-yl)methyl)-1,2,3,4-tetrahydroisoquinoline-2-carbonyl)-1-methylcyclohexane-1-carboxylic acid] | 6.3 | 11 |
| CC(C)n1nnc(COc2ccc(Cl)c3c2[C@@H](CN2CCCC2=O)N(C(=O)[C@@H]2CCC[C@]2(C)C(=O)O)CC3)c1C(F)F [Example 122, (1S,2R)-2-((S)-5-chloro-8-((5-(difluoromethyl)-1-isopropyl-1H-1,2,3-triazol-4-yl)methoxy)-1-((2-oxopyrrolidin-1-yl)methyl)-1,2,3,4-tetrahydroisoquinoline-2-carbonyl)-1-methylcyclopentane-1-carboxylic acid] | 9.7 | 86 |

Second part, led by results:

| IC50 [1] [nM] | SMILES | EC50 [2] [nM] |
| --- | --- | --- |
| 5.8 | Cn1nnc(COc2ccc(Cl)c3c2[C@@H](CN2CC4(CC4)CC2=O)N(C(=O)[C@@H]2CCCC[C@]2(C)C(=O)O)CC3)c1C(F)F [Example 123, (1S,2R)-2-((S)-5-chloro-8-((5-(difluoromethyl)-1-methyl-1H-1,2,3-triazol-4-yl)methoxy)-1-((6-oxo-5-azaspiro[2.4]heptan-5-yl)methyl)-1,2,3,4-tetrahydroisoquinoline-2-carbonyl)-1-methylcyclohexane-1-carboxylic acid] | 0.26 |
| 8.4 | Cc1onc(COc2ccc(Cl)c3c2[C@@H](CN2CCCC2=O)N(C(=O)[C@@H]2CCCC[C@]2(C)C(=O)O)CC3)c1C [Example 124, (1S,2R)-2-((S)-5-chloro-8-((4,5-dimethylisoxazol-3-yl)methoxy)-1-((2-oxopyrrolidin-1-yl)methyl)-1,2,3,4-tetrahydroisoquinoline-2-carbonyl)-1-methylcyclohexane-1-carboxylic acid] | 6.8 |
| 9.2 | Cc1onc(COc2ccc(Cl)c3c2[C@@H](CN2CCCC2=O)N(C(=O)[C@@H]2CCCC[C@]2(C)C(=O)O)CC3)c1Cl [Example 125, (1S,2R)-2-((S)-5-chloro-8-((4-chloro-5-methylisoxazol-3-yl)methoxy)-1-((2-oxopyrrolidin-1-yl)methyl)-1,2,3,4-tetrahydroisoquinoline-2-carbonyl)-1-methylcyclohexane-1-carboxylic acid] | 30 |
| 5.6 | Cc1cnoc1COc1ccc(Cl)c2c1[C@@H](CN1CCCC1=O)N(C(=O)[C@@H]1CCCC[C@]1(C)C(=O)O)CC2 [Example 126, (1S,2R)-2-((S)-5-chloro-8-((4-methylisoxazol-5-yl)methoxy)-1-((2-oxopyrrolidin-1-yl)methyl)-1,2,3,4-tetrahydroisoquinoline-2-carbonyl)-1-methylcyclohexane-1-carboxylic acid] | 32 |
| 7 | COCc1c(COc2ccc(Cl)c3c2[C@@H](CN2CCCC2=O)N(C(=O)[C@@H]2CCCC[C@]2(C)C(=O)O)CC3)nnn1C [Example 127, (1S,2R)-2-((S)-5-chloro-8-((5-(methoxymethyl)-1-methyl-1H-1,2,3-triazol-4-yl)methoxy)-1-((2-oxopyrrolidin-1-yl)methyl)-1,2,3,4-tetrahydroisoquinoline-2-carbonyl)-1-methylcyclohexane-1-carboxylic acid] | 2.6 |
| 8.7 | COCCc1c(COc2ccc(Cl)c3c2[C@@H](CN2CCCC2=O)N(C(=O)[C@@H]2CCCC[C@]2(C)C(=O)O)CC3)nnn1C [Example 128, (1S,2R)-2-((i)-5-chloro-8-((5-(2-methoxyethyl)-1-methyl-1H-1,2,3-triazol-4-yl)methoxy)-1-((2-oxopyrrolidin-1-yl)methyl)-1,2,3,4-tetrahydroisoquinoline-2-carbonyl)-1-methylcyclohexane-1-carboxylic acid] | 1.9 |
| 5.5 | Cn1nnc(COc2ccc(Cl)c3c2[C@@H](CN2CCCC2=O)N(C(=O)[C@@H]2CCCC[C@]2(C)C(=O)O)CC3)c1C1CC1 [Example 129, (1S,2R)-2-((S)-5-chloro-8-((5-cyclopropyl-1-methyl-1H-1,2,3-triazol-4-yl)methoxy)-1-((2-oxopyrrolidin-1-yl)methyl)-1,2,3,4-tetrahydroisoquinoline-2-carbonyl)-1-methylcyclohexane-1-carboxylic acid] | 0.95 |
| 6.7 | C[C@H]1CCN(C[C@@H]2c3c(OCc4nnn(C)c4C(F)(F)F)ccc(Cl)c3CCN2C(=O)[C@@H]2CCCC[C@]2(C)C(=O)O)C1=O [Example 130, (1S,2R)-2-((S)-5-chloro-1-(((S)-3-methyl-2-oxopyrrolidin-1-yl)methyl)-8-((1-methyl-5-(trifluoromethyl)-1H-1,2,3-triazol-4-yl)methoxy)-1,2,3,4-tetrahydroisoquinoline-2-carbonyl)-1-methylcyclohexane-1-carboxylic acid] | 21 |
